Data set [1] can be described thus: Inhibition of RANKL/M-CSF-induced osteoclastogenesis in male C57/BL6 mouse bone marrow cells at 1 uM incubated for 5 to 7 days by TRAP staining based analysis relative to control. In kind it is functional. The note with it: C57/BL6, Bone marrow cell, time 5-7 day.
Data set [2] can be described thus: Cytotoxicity against bone marrow macrophage cells (unknown origin) assessed as cell viability at 10 uM incubated for 24 hrs by CCK8 assay relative to control. In kind it is toxicity, cell-based. The note with it: read-out: Activity. (In general: Formazan colour is commonly taken as a measure of viable cells.)
Data set [3] in a line: Inhibition of RANKL/M-CSF-induced osteoclastogenesis in male C57/BL6 mouse bone marrow cells at 0.1 uM incubated for 5 to 7 days by TRAP staining based analysis relative to control. In kind it is functional. The note with it: C57/BL6, Bone marrow cell, time 5-7 day.
Data set [4] can be described thus: Anti-osteoclastogenic activity in bone marrow cells (unknown origin) assessed as inhibition of RANKL/M-CSF-induced osteoclast differentiation measured after 5 days by TRAP staining based analysis. Type of data set: functional. The note with it: Bone marrow cell, 120 h.

A word on the inhibition: it is how much of the control response was suppressed. Higher therefore signals a response far below the control. In the case of `Cc1cccc(C)c1NC(=O)[C@@H]1Cc2c([nH]c3ccccc23)C2(CN(c3ccc(S(C)(=O)=O)cc3)C2)N1`, in data set [1], the inhibition at 1 µM is 52.1%. Further, the viability at 24 h, 10 µM in data set [2] worked out at 106%. This molecule also yielded an inhibition at 0.1 µM in data set [3] of 23.4%.
In the case of `O=C(Nc1ccccc1F)[C@@H]1Cc2c3ccccc3[nH]c2[C@]2(C[C@H](c3ccccc3)C2)N1`, in data set [1], the inhibition at 1 µM was 40.7%. The viability at 24 h, 10 µM in data set [2] turned out to be 63.6%. In data set [3], this molecule came in with an inhibition at 0.1 µM of 17.6%.
On to `Cc1cccc(C)c1NC(=O)[C@@H]1Cc2c([nH]c3ccccc23)[C@](C)(CCc2ccccc2)N1`, for which, in data set [1], testing at 1 µM gave an inhibition of 48.3%. Also, in data set [2], the viability at 24 h, 10 µM is 117%. This molecule returned an inhibition at 0.1 µM in data set [3] of 37.3%.
In the same order, the values of `CN(C)c1ccccc1NC(=O)[C@@H]1Cc2c3ccccc3[nH]c2[C@]2(C[C@@H](c3ccccc3)C2)N1` are 89.9%, 109% and 32.2%.
In data set [1], `CC(C)c1ccccc1NC(=O)[C@@H]1Cc2c3ccccc3[nH]c2[C@]2(C[C@H](c3ccccc3)C2)N1` gave an inhibition at 1 µM of 37.5%. Further, the viability at 24 h, 10 µM in data set [2] was 103%. The molecule also yielded an inhibition at 0.1 µM in data set [3] of 12.7%.
`Cc1cccnc1NC(=O)[C@@H]1Cc2c3ccccc3[nH]c2[C@]2(C[C@@H](c3ccccc3)C2)N1` had an inhibition at 1 µM in data set [1] of 58.3%. Further, the viability at 24 h, 10 µM in data set [2] stood at 160%. Besides, the inhibition at 0.1 µM in data set [3] came to 35.9%.
In the same order, the values of `COc1cccc(OC)c1NC(=O)[C@@H]1Cc2c3ccccc3[nH]c2[C@]2(C[C@@H](c3ccccc3)C2)N1` are 32.3%, 70.2% and 16.5%.
The like results for `O=C(Nc1ccccn1)[C@@H]1Cc2c3ccccc3[nH]c2[C@]2(C[C@@H](c3ccccc3)C2)N1` were, in that order, 41.2%, 127% and 16.1%.
In the same order, the values of `CN(C)c1ccccc1NC(=O)[C@@H]1Cc2c3ccccc3[nH]c2[C@]2(C[C@H](c3ccccc3)C2)N1` are 58.4%, 66.3% and 10.2%.
In data set [1], `CC(C)c1ccccc1NC(=O)[C@@H]1Cc2c3ccccc3[nH]c2[C@]2(C[C@@H](c3ccccc3)C2)N1` yielded an inhibition at 1 µM of 62.5%. Moreover, in data set [2], the viability at 24 h, 10 µM is 116%. Further, in data set [3], the inhibition at 0.1 µM is 26.5%.
Regarding `Cc1cccc(C)c1NC(=O)[C@@H]1Cc2c([nH]c3ccccc23)C2(CCN(c3ccccc3)CC2)N1`, the inhibition at 1 µM in data set [1] was 30.2%. The viability at 24 h, 10 µM in data set [2] was determined as 120%.
`O=C(Nc1ccccn1)[C@@H]1Cc2c3ccccc3[nH]c2[C@]2(C[C@H](c3ccccc3)C2)N1` displayed an inhibition at 1 µM in data set [1] of 44.2%. For the same molecule, in data set [2], the viability at 24 h, 10 µM stood at 149%. Moreover, in data set [3], the inhibition at 0.1 µM came out at 13.1%.
In the same order, the values of `Cc1ccccc1NC(=O)[C@@H]1Cc2c3ccccc3[nH]c2[C@]2(C[C@H](c3ccccc3)C2)N1` are 66.5%, 112% and 16.5%.
In the same order, the values of `CC(C)c1cccc(C(C)C)c1NC(=O)[C@@H]1Cc2c3ccccc3[nH]c2[C@]2(C[C@@H](c3ccccc3)C2)N1` are 66.9%, 115% and 23.6%.
`Cc1cccc(C)c1NC(=O)[C@@H]1Cc2c3ccccc3[nH]c2[C@]2(C[C@@H](c3ccccc3)C2)N1` displayed an inhibition at 1 µM in data set [1] of 55.1%. Further, the viability at 24 h, 10 µM in data set [2] worked out at 105%. Besides, at 0.1 µM the inhibition in data set [3] was 36.2%.
The like results for `Cc1cccc(C)c1NC(=O)[C@@H]1Cc2c3ccccc3[nH]c2[C@]2(C[C@H](c3ccccc3)C2)N1` were, in that order, 32.3%, 95.1% and 29.2%.
The like results for `COc1ccc(N2CC3(C2)N[C@H](C(=O)Nc2c(C)cccc2C)Cc2c3[nH]c3ccccc23)cc1` were, in that order, 48.6%, 102% and 34.6%.
In the same order, the values of `Cc1cccc(C)c1NC(=O)[C@@H]1Cc2c([nH]c3ccccc23)C2(CN(c3ccc(F)cc3)C2)N1` are 57.4%, 119% and 23.1%.
`Cc1cccc(C)c1NC(=O)[C@H]1Cc2c3ccccc3[nH]c2[C@]2(C[C@H](c3ccccc3)C2)N1`: in data set [1], the inhibition at 1 µM was found to be 45.7%. Moreover, the viability at 24 h, 10 µM in data set [2] is 105%. In data set [3], this molecule yielded an inhibition at 0.1 µM of 12.3%.
For `CC(C)c1cccc(C(C)C)c1NC(=O)[C@@H]1Cc2c3ccccc3[nH]c2[C@]2(C[C@H](c3ccccc3)C2)N1`, at 1 µM the inhibition in data set [1] was 62%. In addition, the viability at 24 h, 10 µM in data set [2] came to 141%. In data set [3], this molecule yielded an inhibition at 0.1 µM of 20.7%.
`Cc1cccc(C)c1NC(=O)[C@@H]1Cc2c([nH]c3ccccc23)[C@@](C)(CCc2ccccc2)N1` showed an inhibition at 1 µM in data set [1] of 52.1%. For the same molecule, the viability at 24 h, 10 µM in data set [2] was found to be 106%. Also, the inhibition at 0.1 µM in data set [3] was determined as 23.4%.
The like results for `Cc1cccc(C)c1NC(=O)[C@H]1Cc2c([nH]c3ccccc23)C2(CN(c3ccccc3)C2)N1` were, in that order, 78.3%, 119% and 42.9%.
Consider `Cc1cccc(C)c1NC(=O)[C@H]1Cc2c3ccccc3[nH]c2[C@]2(C[C@@H](c3ccccc3)C2)N1`, for which the inhibition at 1 µM in data set [1] is 23.8%. Besides, in data set [2], the viability at 24 h, 10 µM stood at 116%.
`Cc1cccc(C)c1NC(=O)[C@@H]1Cc2c([nH]c3ccccc23)C2(CN(c3ccc(C(F)(F)F)cc3)C2)N1` yielded an inhibition at 1 µM in data set [1] of 43.7%. The viability at 24 h, 10 µM in data set [2] is 117%. This molecule returned an inhibition at 0.1 µM in data set [3] of 15.4%.
In the same order, the values of `CCc1ccc(N2CC3(C2)N[C@H](C(=O)Nc2c(C)cccc2C)Cc2c3[nH]c3ccccc23)cc1` are 35.9%, 101% and 25.1%.
The like results for `COc1cccc(OC)c1NC(=O)[C@@H]1Cc2c3ccccc3[nH]c2[C@]2(C[C@H](c3ccccc3)C2)N1` were, in that order, 35.9%, 95.7% and 11.5%.
By IC50 is commonly meant the concentration that inhibits the measured activity by half. In data set [1], `Cc1cc2occ(CN(C)CCN(C)Cc3cn(-c4cccc(C(F)(F)F)c4)c4ccccc34)c(=O)c2cc1C` returned an inhibition at 1 µM of 56.1%. Moreover, in data set [4], the IC50 came out at 1000 nM. Further, in data set [2], the viability at 24 h, 10 µM turned out to be 3.8%. In data set [3], the inhibition at 0.1 µM came to 18.4%.
As for `Cc1cccnc1NC(=O)[C@@H]1Cc2c3ccccc3[nH]c2[C@]2(C[C@H](c3ccccc3)C2)N1`, testing at 1 µM in data set [1] gave an inhibition of 49.8%. The viability at 24 h, 10 µM in data set [2] came to 159%. The inhibition at 0.1 µM in data set [3] was determined as 16.7%.
In the same order, the values of `O=C(Nc1ccccc1F)[C@@H]1Cc2c3ccccc3[nH]c2[C@]2(C[C@@H](c3ccccc3)C2)N1` are 70.1%, 101% and 34.4%.
The like results for `Cc1cccc(C)c1NC(=O)[C@@H]1Cc2c([nH]c3ccccc23)C2(CN(c3cccnc3)C2)N1` were, in that order, 52.5%, 107% and 11.5%.
In the case of `Cc1ccccc1NC(=O)[C@@H]1Cc2c3ccccc3[nH]c2[C@]2(C[C@@H](c3ccccc3)C2)N1`, the inhibition at 1 µM in data set [1] was 54.4%. The viability at 24 h, 10 µM in data set [2] is 102%. The molecule also returned an inhibition at 0.1 µM in data set [3] of 23%.
In the same order, the values of `Cc1cccc(C)c1NC(=O)[C@@H]1Cc2c([nH]c3ccccc23)C2(CN(c3ccc(C#N)cc3)C2)N1` are 48.3%, 105% and 37.3%.

The values above are taken from ChEMBL document CHEMBL6178002, “Identification of a RANKL/TNF-α Dual-Inhibitor as a Potential Disease-Modifying Agent for the Treatment of Knee Osteoarthritis” (J Med Chem, 2025).
